According to publication PMC3408453, “A Foldamer-Dendrimer Conjugate Neutralizes Synaptotoxic β-Amyloid Oligomers” (PLoS ONE, 2012):
Several values for one entry are separate records, joined by “and”; a condition that tells them apart may be missing. Identical values can stand only once.

Legend:
[1] = target: T1, Aβ oligomers (Homo sapiens, UniProt P05067); experiment: Isothermal titration calorimetry (ITC) with Aβ oligomers; type: binding; conditions: 72 μM Aβ oligomer, 288 K
T1 construct: a depsipeptide derivative of Aβ(1–42) was utilized; made in house; host or cells: chemical peptide synthesis (no expression host)
Procedure: Binding of 7 to the Aβ oligomers was monitored by means of isothermal titration calorimetry (ITC). […] The titrations were run at 288 K in order to improve the signal to noise ratio, and just above the precipitation limit as the ITC method is sensitive to the thermal noise caused by the stirring of large particles. […] These values strongly supported tight binding between the Aβ oligomer species and 7.
Isothermal titrations were performed with a Microcal VP-ITC microcalorimeter. The binding experiments were performed in PBS pH 7.4. The buffer solution was degassed. The concentrations of the ligands and Aβ were corrected for the material content. In individual titrations, 10 μL of ligand was injected from the computer-controlled 300-μL microsyringe at intervals of 300 s into the Aβ oligomer solution dissolved in the same buffer as the ligand. The microsyringe stirring was set to 295 rpm. All measurements were made at 288 K. The Aβ concentrations in the cell were either 72 μM or 36 μM, and the concentrations of 7 were 175 μM and 222 μM respectively. The total ligand concentration was set in the syringe so that the titration stopped when the precipitation became excessive. Control experiments were performed by injecting the ligand into a cell containing buffer with no target, and the heats of dilution were subtracted from those measured in the presence of Aβ. Titrations were also performed with buffer in the syringe and Aβ oligomer sample in the cell to check for the heat response of Aβ dilution itself. The dilution heat of the Aβ oligomer samples was constant and negligible. Since the target is inherently inhomogeneous, and an a priori model of the binding events is not available,. the experimental data were fitted to the two independent site binding model by using a nonlinear least-squares procedure, with ΔHb, ΔHb', Ka, Ka' (association constants), N and N' (number of binding sites for monomer), as adjustable parameters. The exothermic peaks appearing after the fully precipitated phase was reached, were omitted from the regression.

[2] = test system: LTP in mouse hippocampal slices impaired by Aβ(1–42) oligomers; experiment: Ex vivo hippocampal slice LTP electrophysiology; type: cell-based; conditions: mean ±SEM
Source text: We investigated whether 7 could protect against the synaptic plasticity damage caused by Aβ(1–42) oligomers by using a hippocampus slice LTP model. LTP, a correlate of learning and memory has been repeatedly shown to be impaired by Aβ(1–42) oligomers. As negative control, substance 11 was applied. The experimenters were blind to the compounds tested.
These observations indicate the significant protective effect of 7 (Figure 12D). To test the effects of valency, LTP experiments were repeated with 8 under the same conditions.
Via standard procedures, 350-µm-thick transverse hippocampal slices were prepared from the brain of 7-months-old mice (CD1, Animal Breeding Facility, University of Szeged) with a McIlwain tissue chopper (Campden Instruments, Loughborough, UK). Slices were incubated in standard artificial cerebrospinal fluid (ACSF) at ambient temperature for 60 min, during constant gassing with 95% O2–5% CO2. The ACSF contained (mM): NaCl, 130; KCl, 3.5; CaCl2, 2; MgCl2, 2; NaH2PO4, 0.96; NaHCO3, 24; and D-glucose, 10 (pH 7.4). Individual slices were transferred to a 3D-MEA chip with 60 tip-shaped and 60-μm-high electrodes spaced at 100 μm (Ayanda Biosystems, S.A., Lausanne, Switzerland). The slice was continuously perfused with oxygenated ACSF (1.5 ml min^−1 at 34 °C) containing 720 nM Aβ(1–42) oligomers and/or 950 nM ligand throughout the recording session. Data were recorded with a standard, commercially available MEA setup (Multi Channel Systems MCS GmbH, Reutlingen, Germany). The Schaffer-collateral was stimulated by injecting a biphasic current waveform (−100/+100 μs) through one selected electrode at 0.033 Hz. Care was taken to choose the stimulating electrode in the same region from one slice to the other. The peak-to-peak amplitudes of fEPSPs at the stratum pyramidale and stratum radiatum of CA1 were analyzed. After a 30-min incubation period, the threshold and the maximum of stimulation intensity for evoke responses was determined. To evoke responses, 30% of the maximal stimulation intensity was used. LTP was induced by applying a theta-burst stimulation (TBS) pattern at the maximal stimulation intensity. The TBS comprised four trains administered at 20-s intervals with 10 bursts given at 5 Hz per train and 4 pulses at 100 Hz per burst. Statistical analysis was carried out by using two-tailed Student's t-test. For representative raw data see Figure S12.

[3] = target: T1, Aβ oligomers; experiment: Electronic circular dichroism of Aβ oligomer with ligand; conditions: 0.25 equivalents ligand with 36 μM Aβ
Source text: The data on 7 were in agreement with its largely helical structure, also found via NMR. […] This was in accord with the NMR results obtained for the recognition segment 1. The secondary structure was probed also with ThT binding experiments (Figure 9B). Pure Aβ oligomers bound ThT at a certain level. This was in accord with the staining with antibody OC; both are capable of recognizing the fibrillar (or protofibrillar) oligomers. […] The latter process is similar to affinity precipitation.
(A) Observed ellipticities in ECD for 36 μM Aβ oligomer (thick black), 9 μM 7 (thin black), and 36 μM Aβ +9 μM 7 (thick dashed). The hypothetical sum of the ECD curves of the pure samples (thin dashed). (B) ThT binding experiment carried out on 36 µM oligomeric Aβ (white bars) and on 36 µM oligomeric Aβ +7 1∶1 mixtures. The relative fluorescence values were monitored up to 24 h.
CD spectra were measured on a Jasco J815 dichrograph in a 1.00 cm cell using PBS (pH = 7.4) as solvent. Three spectra were accumulated for each sample. The baseline spectrum recorded with only the solvent and it was subtracted from the raw data.

T1 sequence (P05067 672-713 limits assumed): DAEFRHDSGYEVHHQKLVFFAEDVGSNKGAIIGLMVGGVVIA

N=C(N)NCCC[C@@H](CC(=O)N[C@H]1CCCC[C@@H]1C(=O)N[C@H]1CCCC[C@@H]1C(=O)N[C@@H](CC(=O)O)CC(=O)N[C@H]1CCCC[C@@H]1C(=O)NCC(=O)NCC(=O)N[C@@H](CSC1CC(=O)N(CCC(=O)NCCNC(=O)CCN(CCC(=O)NCCNC(=O)CCN2C(=O)CC(SC[C@H](NC(=O)CNC(=O)CNC(=O)[C@H]3CCCC[C@@H]3NC(=O)C[C@H](CC(=O)O)NC(=O)[C@H]3CCCC[C@@H]3NC(=O)[C@H]3CCCC[C@@H]3NC(=O)C[C@H](CCCNC(=N)N)NC(=O)[C@H]3CCCC[C@@H]3N)C(N)=O)C2=O)CCN(CCC(=O)NCCNC(=O)CCN2C(=O)CC(SC[C@H](NC(=O)CNC(=O)CNC(=O)[C@H]3CCCC[C@@H]3NC(=O)C[C@H](CC(=O)O)NC(=O)[C@H]3CCCC[C@@H]3NC(=O)[C@H]3CCCC[C@@H]3NC(=O)C[C@H](CCCNC(=N)N)NC(=O)[C@H]3CCCC[C@@H]3N)C(N)=O)C2=O)CCC(=O)NCCNC(=O)CCN2C(=O)CC(SC[C@H](NC(=O)CNC(=O)CNC(=O)[C@H]3CCCC[C@@H]3NC(=O)C[C@H](CC(=O)O)NC(=O)[C@H]3CCCC[C@@H]3NC(=O)[C@H]3CCCC[C@@H]3NC(=O)C[C@H](CCCNC(=N)N)NC(=O)[C@H]3CCCC[C@@H]3N)C(N)=O)C2=O)C1=O)C(N)=O)NC(=O)[C@H]1CCCC[C@@H]1N (stereo partly shown) [Compound 7]
N (ITC stoichiometry, number of binding sites for monomer; first or single stage) [1]: 0.041±0.00089 and 0.041 | N' (ITC stoichiometry, lower affinity interaction) [1]: 0.18±0.002 and 0.18 | ΔHb (ITC; first binding step for 7, single stage for 8) [1]: 7.24 ± 0.05 kcal/mol | ΔHb' (ITC, lower affinity interaction) [1]: 2.58 ± 0.02 kcal/mol | LTP (potentiation) with Aβ(1–42) oligomers and ligand together ([2]; 720 nM Aβ(1–42) oligomers + 950 nM ligand, 180 min after LTP induction): 195±5% | LTP (potentiation) with ligand alone ([2]; 950 nM ligand, no Aβ oligomers): 184±16% | ECD: effect on β-sheet content of Aβ [3]: did not lead to an immediate increase in the β-sheet content
